Test system: T1, L-methionine γ-lyase (MGL); A. fumigatus L-methioninase
T1 construct: native extracellular enzyme purified from culture supernatant (heat treatment, Sephadex G-100); about 46 kDa on SDS-PAGE; homodimer
Experiment: DTNB assay of released methanethiol at […] nm, Lineweaver-Burk plot
Assay type: biochemical, Aspergillus fumigatus
Details: 0.05 M potassium phosphate pH 7.0, 0.01 mM PLP, 0.25 mM DTNB, 30 °C; read-out: apparent Km

Compound: CSCC[C@H](N)C(=O)O [L-methionine]
- Km: 20.6 mM

— paper PMC9837997, “Purification, Characterization and anticancer activity of L-methionine γ-lyase from thermo-tolerant Aspergillus fumigatus” (Microbial Cell Factories, 2023)
